Test results as given in patent EP1032561B1, “SUBSTITUTED OXIMES AS NEUROKININ ANTAGONISTS” (SCHERING CORPORATION, priority 1997, dated 1999).

Columns and labels:
[1] = molecular target: T1, NK2 receptor (Homo sapiens, UniProt P21452); experiment: neurokinin receptor binding assay, NK2
T1 sequence (P21452 1-398): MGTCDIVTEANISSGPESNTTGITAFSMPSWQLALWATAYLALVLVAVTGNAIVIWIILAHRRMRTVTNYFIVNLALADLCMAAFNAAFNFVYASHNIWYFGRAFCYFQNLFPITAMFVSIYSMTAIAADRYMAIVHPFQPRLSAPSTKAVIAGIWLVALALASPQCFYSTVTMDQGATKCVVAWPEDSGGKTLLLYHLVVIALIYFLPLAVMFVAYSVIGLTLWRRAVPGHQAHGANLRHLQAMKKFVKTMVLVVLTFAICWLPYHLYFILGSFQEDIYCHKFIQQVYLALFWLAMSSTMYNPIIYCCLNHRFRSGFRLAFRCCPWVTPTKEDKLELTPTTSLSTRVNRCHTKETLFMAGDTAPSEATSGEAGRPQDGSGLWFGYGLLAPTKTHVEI
Text: (§1) The in vitro and in vivo activity of the compounds of formula I can be determined by various procedures known in the art, such as a test for their ability to inhibit the activity of the NK1 agonist Substance P, an isolated hamster trachea NK2 assay, a test of the effect of NK1 antagonists on Substance P-induced airway microvascular leakage, measurement of NK2 activity in vivo in guinea pigs, measurement of bronchoconstriction due to NKA, and neurokinin receptor binding assay(s). Typical procedures are described in WO96/34857, published November 7, 1996. NK3 activity is determined by following a procedure similar to that described in the literature, e.g., Molecular Pharmacol., 48 (1995), p. 711-716.
(§2) % Inhibition is the difference between the percent of maximum specific binding (MSB) and 100%. The percent of MSB is defined by the following equation, wherein "dpm" is disintegrations per minute: % MSB =((dpm of unknown) - (dpm of nonspecific binding))/((dpm of total binding) - (dpm of nonspecific binding))X 100 [formula]

[2] = molecular target: NK1 receptor (Homo sapiens, UniProt P25103); experiment: neurokinin receptor binding assay, NK1
Chain of NK1 receptor (P25103 whole entry, species assumed): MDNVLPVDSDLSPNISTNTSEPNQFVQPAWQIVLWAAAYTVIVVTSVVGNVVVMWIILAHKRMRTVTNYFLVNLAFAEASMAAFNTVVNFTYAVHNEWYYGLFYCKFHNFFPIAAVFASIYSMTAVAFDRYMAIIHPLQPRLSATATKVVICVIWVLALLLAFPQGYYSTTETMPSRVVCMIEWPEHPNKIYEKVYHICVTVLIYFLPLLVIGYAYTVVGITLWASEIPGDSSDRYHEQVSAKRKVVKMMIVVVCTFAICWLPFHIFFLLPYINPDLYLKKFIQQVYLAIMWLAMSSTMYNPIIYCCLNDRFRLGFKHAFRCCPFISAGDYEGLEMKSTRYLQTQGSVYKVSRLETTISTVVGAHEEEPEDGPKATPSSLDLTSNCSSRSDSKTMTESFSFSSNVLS
Text: as §1, §2

SMILES: CON=C(CN(C)C(=O)c1cc(C(F)(F)F)cc(C(F)(F)F)c1)C(CCN1CCC(O)(c2ccccc2)CC1)c1ccc(Cl)c(Cl)c1 (centres unmarked) [Example 11]
- Ki [1]: 9.2 nM
- Ki [2]: 3.6 nM
